For 16 compounds, GI50 and TGI results are on record in PubChem BioAssay (NCI).

What all share (assay): NCI tumour cell line growth inhibition, 48 h
For experiment [1], the system named is COLO 205 colon.
Experiment [2] relates to HCT-116 colon.
Experiment [3] concerns HL-60(TB) leukemia.
Experiment [4] deals with HT29 colon.
In experiment [5] the test system is LOX IMVI melanoma.
The test system of experiment [6] is NCI-H460 lung.
Experiment [7] relates to OVCAR-3 ovarian.
Experiment [8] has as its system SF-268 CNS.
The test system of experiment [9] is SF-295 CNS.
In experiment [10] the test system is SNB-19 CNS.

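Briefly, cells in 96-well plates were exposed to five compound concentrations for 48 h, and endpoints were estimated by linear interpolation. GI50 is the concentration that inhibits growth by half. TGI: concentration producing complete growth inhibition.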

As to `COc1cc2ncn(-c3cc(O[C@@H](C)c4ccccc4Cl)c(C(N)=O)s3)c2cc1OC`, the GI50 in experiment [1] is 0.444 µM; in experiment [2], 1.01 µM; in experiment [3] it was 0.728 µM; in [4] it was 0.107 µM; in [5] it was 1.05 µM; in experiment [6], 0.949 µM. In addition, the GI50 is 0.513 µM in experiment [7], 1.61 µM in experiment [8], 1.25 µM in [9] and 2.7 µM in experiment [10]. Besides, the TGI was over 25 µM in [1]; over 25 µM in experiment [2]; 2.86 µM in experiment [3]; over 25 µM in experiment [4]; over 25 µM in experiment [5]; over 25 µM in experiment [6]. In addition, the TGI is over 17.4 µM in experiment [7], over 25 µM in experiment [8], over 25 µM in [9] and over 25 µM in [10].

For the compound `CCCN(CCC)c1ccc(/C=C/c2ccc3cc(OCC)ccc3n2)cc1`, the GI50 in [1] was over 100 µM; in experiment [2], 31.6 µM; in experiment [3], 20.3 µM; in [4] it was 15 µM; in experiment [5] it was over 100 µM; in experiment [6], 63.2 µM. Moreover, the GI50 in experiment [7] was over 100 µM; in experiment [8], over 100 µM; in [9] it was 22.7 µM; in experiment [10] it was over 100 µM. The TGI in experiment [1], in experiment [2], in experiment [3], in experiment [4], in experiment [5] and in [6] was over 100 µM each time. Also, the TGI in [7], in experiment [8], in [9] and in experiment [10] was over 100 µM in each case.

For `CCN(CC)CCCNC(=O)C1COc2cc(-c3cc(=O)c4ccccc4o3)ccc2O1` (stereo not given), the TGI in experiment [1] was 81.4 µM; in experiment [2], over 100 µM; in [3] it was over 100 µM; in [4], over 100 µM; in experiment [5], 48.2 µM; in [6] it was over 100 µM. In addition, the TGI in experiment [7], in experiment [8], in [9] and in experiment [10] was over 100 µM in each case.

As for `COc1cccc(/C=C/[N+](=O)[O-])c1`, the GI50 was 1.86 µM in experiment [1]; 1.49 µM in experiment [2]; 2.31 µM in experiment [3]; 1.92 µM in experiment [4]; 1.66 µM in experiment [5]; 15.1 µM in experiment [6]. Moreover, the GI50 in [7] is 1.96 µM; in experiment [8] it was 5.64 µM; in experiment [9], 3.07 µM; in [10] it was 16.5 µM. Further, the TGI was 3.54 µM in [1]; 3.31 µM in [2]; 5.77 µM in experiment [3]; 4.48 µM in experiment [4]; 3.12 µM in experiment [5]; 38.8 µM in [6]. For the same compound, the TGI in experiment [7] was 4.08 µM; in experiment [8], 21.4 µM; in experiment [9], 13.4 µM; in experiment [10], 37 µM.

Take `COc1ccc(NC(=O)CC/C(CC(=O)C(C)(C)C)=N\NC(=O)C(=O)NN)cc1`: the TGI in [1], in [2], in experiment [3], in [4], in [5] and in experiment [6] was over 100 µM throughout. For the same compound, the TGI in [7], in experiment [8], in [9] and in [10] was over 100 µM in each case.

Regarding `CC(=O)N1C/C(=C/c2ccc(Cl)cc2)C(=O)/C(=C/c2ccc(Cl)cc2)C1`, the GI50 was 0.756 µM in [1]; 0.202 µM in experiment [2]; 0.924 µM in [3]; 0.254 µM in experiment [4]; 0.184 µM in experiment [5]; 1.32 µM in experiment [6]. Besides, the GI50 in experiment [7] is 0.583 µM; in experiment [8], 1.37 µM; in experiment [9], 1.08 µM; in experiment [10], 1.14 µM. For the same compound, the TGI in [1] was found to be 2.01 µM; in experiment [2], 0.465 µM; in experiment [3] it was 3.95 µM; in experiment [4] it was 0.619 µM; in experiment [5], 0.395 µM; in [6], 4.22 µM. Moreover, the TGI in experiment [7] was found to be 1.79 µM; in experiment [8] it was 4.02 µM; in [9], 3.02 µM; in experiment [10] it was 2.49 µM.

Regarding `O=C(CCc1nnc2s/c(=C\c3ccc(Cl)c(Cl)c3)c(=O)n12)Nc1ccc(Cl)c(Cl)c1`, the TGI was over 100 µM in experiment [1]; over 100 µM in experiment [2]; 64 µM in experiment [3]; over 100 µM in experiment [4]; 39 µM in experiment [5]; over 100 µM in [6]. The TGI in experiment [7], in experiment [8], in experiment [9] and in experiment [10] was over 100 µM each time.

Turning to `N#CC1=C(N)Oc2c(ccc3ccccc23)C1c1ccccc1` (stereo not given), the GI50 in experiment [1] was 0.19 µM; in experiment [2], 0.0443 µM; in experiment [3], 0.0295 µM; in [4], 0.146 µM; in experiment [5] it was 0.0575 µM; in experiment [6], 0.038 µM. The GI50 in [7] was 0.0357 µM; in experiment [8], 0.166 µM; in [9], 0.0299 µM; in experiment [10] it was 0.0579 µM. Moreover, the TGI in experiment [1] was 1.23 µM; in experiment [2], 3.73 µM; in experiment [3], 0.274 µM; in experiment [4], 11.1 µM; in [5], 3.25 µM; in [6] it was 10.8 µM. The TGI in experiment [7] is 2.2 µM; in experiment [8], 15.7 µM; in [9] it was 11.6 µM; in [10], 18.1 µM.

As to `CC(=O)c1cccc(C)c1C(=O)O`, the TGI in experiment [1], in experiment [2], in experiment [3], in [4], in [5] and in [6] was over 100 µM each time. The TGI in [7], in experiment [8], in [9] and in experiment [10] was over 100 µM throughout.

`O=c1cc(N2CCN(CCCCCOc3cc(O)c4c(=O)cc(-c5ccccc5)oc4c3)CC2)c2ccccc2o1`: the GI50 in [1] is 70.5 µM; in experiment [2] it was 25.4 µM; in experiment [3], 17.5 µM; in experiment [4], 17.4 µM; in experiment [5] it was 51.2 µM; in experiment [6], over 100 µM. For the same compound, the GI50 in experiment [7], in experiment [8], in experiment [9] and in [10] was over 100 µM each time. Besides, the TGI in [1], in [2], in experiment [3], in experiment [4], in experiment [5] and in experiment [6] was over 100 µM throughout. Further, the TGI in [7], in experiment [8], in experiment [9] and in experiment [10] was over 100 µM throughout.

Take `CC(C)C[C@H](NC(=O)Cn1ccc(NCc2ccccc2)cc1=O)B(O)O`: the GI50 in experiment [1] was 2.48 µM; in experiment [2], 0.576 µM; in [3], 0.439 µM; in experiment [4] it was 0.814 µM; in experiment [5], 0.606 µM; in experiment [6] it was 6.19 µM. In addition, the GI50 was 0.537 µM in experiment [7], 3.57 µM in [8], 2.62 µM in experiment [9] and 4.96 µM in experiment [10]. In addition, the TGI in experiment [1] is over 100 µM; in experiment [2], 3.66 µM; in experiment [3] it was 10.7 µM; in [4], 8.41 µM; in experiment [5], 2.31 µM; in [6], 37.6 µM. In addition, the TGI is 3.12 µM in experiment [7], 27.5 µM in experiment [8], 15.3 µM in experiment [9] and over 100 µM in experiment [10].

On to `C=C1C(=O)O[C@H]2[C@H]1CC/C(COC(=O)C(=O)c1cn(C)c3ccc(Cl)cc13)=C\CC[C@@]1(C)O[C@@H]21`, for which the GI50 is 1.96 µM in [1]; 1.24 µM in [2]; 1.25 µM in experiment [3]; 0.339 µM in experiment [4]; 0.191 µM in experiment [5]; 2.28 µM in experiment [6]. Also, the GI50 in experiment [7] is 0.315 µM; in experiment [8], 1.56 µM; in experiment [9] it was 2.88 µM; in [10], 2.16 µM. The TGI came to 4.2 µM in [1]; 2.69 µM in experiment [2]; 4.09 µM in [3]; 1.19 µM in experiment [4]; 0.387 µM in [5]; 6.75 µM in [6]. For the same compound, the TGI came to 1.03 µM in [7], 4.56 µM in experiment [8], 10.3 µM in experiment [9] and 6.13 µM in [10].

Turning to `COc1ccc(-c2cc(-c3ccc(Cl)cc3)nc(SCCCC(=O)NO)n2)cc1`, the GI50 in [1] was 1.69 µM; in experiment [2], 0.563 µM; in [3], 1.65 µM; in experiment [4], 1.41 µM; in experiment [5], 0.153 µM; in experiment [6], 0.495 µM. Moreover, the GI50 in experiment [7] is 0.406 µM; in [8], 1.15 µM; in [9], 0.537 µM; in [10], 2.18 µM. The TGI in experiment [1] was 4.4 µM; in experiment [2], over 100 µM; in [3], over 23 µM; in experiment [4], 3.77 µM; in experiment [5] it was 1.32 µM; in [6], 3.9 µM. Further, the TGI in experiment [7] was 2.11 µM; in [8], 4.27 µM; in experiment [9], 2.23 µM; in experiment [10], over 27.1 µM.

Consider `COC(=O)CC[C@]1(C)O[C@H]2[C@H]([C@@H](C)CCCC(C)=O)OC(=O)[C@@H]2C[C@H]1O`, for which the GI50 in experiment [1], in experiment [2], in experiment [3], in experiment [4], in experiment [5] and in [6] was over 100 µM in each case. The GI50 was 31.5 µM in experiment [7], over 100 µM in [8], over 100 µM in experiment [9] and over 100 µM in experiment [10]. Further, the TGI in experiment [1], in experiment [2], in experiment [3], in experiment [4], in experiment [5] and in [6] was over 100 µM in each case. Also, the TGI in [7], in [8], in experiment [9] and in experiment [10] was over 100 µM in each case.

For `C=C1C(C2(C)C(OC(C)=O)CC(=O)OC(C)(COC(C)=O)C2CC(=O)OC)C(OC=O)C(OC(=O)C(O)C(C)CC)C2(C)C(c3ccoc3)CC(=O)C12O` (stereo not given), the TGI was over 100 µM in [1]; over 100 µM in experiment [2]; 0.414 µM in [3]; over 100 µM in experiment [4]; over 100 µM in [5]; over 21.8 µM in experiment [6]. In addition, the TGI in experiment [7], in experiment [8], in [9] and in [10] was over 100 µM throughout.

On to `Cc1cc(O)cc2c1[C@]1(C)CCC3C(C)(C)CCC[C@]3(C)[C@H]1C2` (stereo not given in full), for which the GI50 is 18.8 µM in experiment [1]; 19 µM in experiment [2]; 32.4 µM in experiment [3]; 18.5 µM in experiment [4]; 19.5 µM in experiment [5]; 20.6 µM in [6]. Further, the GI50 in [7] is 19.2 µM; in experiment [8], 21 µM; in experiment [9], 20.3 µM; in experiment [10] it was 20.8 µM. The TGI in experiment [1] is 34 µM; in [2] it was 33 µM; in experiment [3] it was over 100 µM; in [4], 35.5 µM; in experiment [5], 35.8 µM; in experiment [6], 37.1 µM. Moreover, the TGI in experiment [7] came to 33.5 µM; in experiment [8], 39.4 µM; in experiment [9] it was 36 µM; in experiment [10] it was 35.7 µM.
